Assay [1] concerns the target T1, human A2B adenosine receptors (Homo sapiens, UniProt P29275).
T1 construct: expressed in transfected cells; host or cells: HEK-293 cells
T1 sequence (P29275 1-332): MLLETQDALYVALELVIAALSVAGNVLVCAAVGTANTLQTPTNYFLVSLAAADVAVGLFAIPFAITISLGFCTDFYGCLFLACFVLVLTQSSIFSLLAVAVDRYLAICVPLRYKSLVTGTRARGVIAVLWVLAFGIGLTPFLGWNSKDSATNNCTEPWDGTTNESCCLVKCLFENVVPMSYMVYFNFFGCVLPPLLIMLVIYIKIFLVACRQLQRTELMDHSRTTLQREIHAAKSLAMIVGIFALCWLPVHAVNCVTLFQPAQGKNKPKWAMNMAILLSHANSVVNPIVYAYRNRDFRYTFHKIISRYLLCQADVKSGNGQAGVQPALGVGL
The experiment in a line: Displacement of [3H]DPCPX binding at human A2B adenosine receptors expressed in HEK-293 cells.

Assay [2] addresses T2, human A1 adenosine receptors (Homo sapiens, UniProt P30542).
T2 construct: expressed in transfected cells; host or cells: CHO cells
T2 sequence (P30542 1-326): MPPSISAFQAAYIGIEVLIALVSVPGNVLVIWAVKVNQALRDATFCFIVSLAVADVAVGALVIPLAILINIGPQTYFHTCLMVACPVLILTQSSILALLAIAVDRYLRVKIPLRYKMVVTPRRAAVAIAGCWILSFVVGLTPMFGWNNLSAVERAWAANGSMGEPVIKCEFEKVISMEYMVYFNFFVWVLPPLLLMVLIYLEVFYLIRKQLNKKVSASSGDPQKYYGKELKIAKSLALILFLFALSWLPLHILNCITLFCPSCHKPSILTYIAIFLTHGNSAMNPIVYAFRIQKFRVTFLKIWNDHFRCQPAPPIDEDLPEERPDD
The experiment in a line: Displacement of [3H]DPCPX binding at human A1 adenosine receptors expressed in CHO cells. A general note: In a radioligand displacement assay an active substance lowers the binding of a labelled ligand.

Assay [3] concerns the target T3, human A3 adenosine receptors (Homo sapiens, UniProt P0DMS8).
T3 sequence (P0DMS8 1-318): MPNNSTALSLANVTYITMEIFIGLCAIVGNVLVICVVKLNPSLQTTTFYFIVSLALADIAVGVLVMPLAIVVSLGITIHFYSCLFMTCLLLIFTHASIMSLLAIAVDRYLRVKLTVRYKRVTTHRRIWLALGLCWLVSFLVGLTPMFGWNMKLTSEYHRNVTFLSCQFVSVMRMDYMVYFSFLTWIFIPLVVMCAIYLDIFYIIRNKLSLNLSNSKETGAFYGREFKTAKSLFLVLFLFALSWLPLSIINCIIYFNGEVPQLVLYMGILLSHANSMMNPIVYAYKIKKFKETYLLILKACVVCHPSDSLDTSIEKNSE
The experiment in a line: Displacement of [3H]MRE 3008F20 binding at human A3 adenosine receptors expressed in CHO cells. Set-up: expressed in transfected cells; host or cells: CHO cells. As to conditions: for affinity for / interaction with A3 adenosine receptor subtype: in words, discussion of Tables 2 and 3.

In assay [4] the target is T4, human A2A adenosine receptors (Homo sapiens, UniProt P29274).
T4 construct: expressed in transfected cells; host or cells: CHO cells
The experiment in a line: Displacement of [3H]SCH58261 binding at human A2A adenosine receptors expressed in CHO cells. The settings on record: for Ki: CHO cells; for affinity for A2A adenosine receptor subtype / selectivity for A2A versus the other adenosine receptor subtypes: in words; for affinity for A2A adenosine receptor subtype: discussion of Tables 2 and 3.

Setting [5] is: Table 2, footnote b: [3H]DPCPX, human A1.
Setting [6] is: Table 2, footnote b: [3H]MRE 3008F20, human A3, CHO cells.
Setting [7] is: Table 2, footnote b: [3H]SCH58261, human A2A.
[8] abbreviates: Table 3: [3H]DPCPX, HEK-293 cells.
Where [9] appears, read: Table 3: [3H]DPCPX, human A1, CHO cells.
Setting [10] is: Table 3: [3H]SCH58261, human A2A.
Where [11] appears, read: Table 3: [3H]MRE 3008F20, human A3, CHO cells.

The record followed here is patent US7064204B2, “Pharmaceutically active compounds having a tricyclic pyrazolotriazolopyrimidine ring structure and methods of use” (King Pharmacueticals Reserch and Development, Inc., priority 2002, dated 2006).

Counter-ions that a name gives are not always drawn.

T4 sequence (P29274 whole entry): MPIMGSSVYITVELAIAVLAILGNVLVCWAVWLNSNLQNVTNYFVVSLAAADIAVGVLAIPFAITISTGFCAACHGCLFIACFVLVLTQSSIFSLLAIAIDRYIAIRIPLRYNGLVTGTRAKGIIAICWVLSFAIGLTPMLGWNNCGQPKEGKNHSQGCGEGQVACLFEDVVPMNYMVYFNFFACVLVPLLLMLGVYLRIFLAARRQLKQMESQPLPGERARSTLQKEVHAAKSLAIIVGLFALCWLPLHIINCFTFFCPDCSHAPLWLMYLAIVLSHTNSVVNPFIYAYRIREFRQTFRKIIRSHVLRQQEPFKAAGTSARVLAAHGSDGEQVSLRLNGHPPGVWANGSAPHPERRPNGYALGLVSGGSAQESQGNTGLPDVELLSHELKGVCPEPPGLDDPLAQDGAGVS

For the compound `Nc1nc2c(cnn2CCc2ccccc2)c2nc(-c3ccc(OCC(=O)O)cc3)nn12` [Compound 7, [4-(5-Amino-7-phenethyl-7H-pyrazolo[4,3-e][1,2,4]triazolo[1,5-c]pyrimidin-2-yl)-phenoxy]-acetic acid], the inhibition constant (Ki) is greater than 1000 nM in assay [1] (Table 2, footnote b: [3H]DPCPX); greater than 1000 nM in assay [2] (setting [5]); greater than 1000 nM in assay [3] (setting [6]); greater than 1000 nM in assay [4] (setting [7]).

In the case of `CSc1c2c(nc(N)n3nc(-c4ccco4)nc23)nn1CCCc1ccccc1` [Compound 43, 2-Furan-2-yl-9-methylsulfanyl-8-(3-phenyl-propyl)-8H-pyrazolo[4,3-e][1,2,4]triazolo[1,5-c]pyrimidin-5-ylamine], the Ki in assay [1] (setting [8]) is 31 nM; in assay [2] (setting [9]), 175 nM; in assay [4] (setting [10]), 22 nM. Besides, in assay [4], the “affinity for A2A adenosine receptor subtype” value was “decrease of A2A interaction”.

`CCNc1c2c(nc(N)n3nc(-c4ccco4)nc23)nn1C` [Compound 53, N9-Ethyl-2-furan-2-yl-8-methyl-8H-pyrazolo[4,3-e][1,2,4]triazolo[1,5-c]pyrimidine-5,9-diamine hydrochloride salt]: the Ki in assay [1] (Table 3: [3H]DPCPX, HEK-293 cells, hydrochloride salt) was determined as 36 nM; in assay [2] (Table 3: [3H]DPCPX, human A1, CHO cells, hydrochloride salt) it was 41 nM; in assay [3] (Table 3: [3H]MRE 3008F20, human A3, CHO cells, hydrochloride salt), 25 nM.

As to `CCOC(=O)COc1ccc(-c2nc3c4cnn(CCc5ccccc5)c4nc(N)n3n2)cc1` [Compound 6, [4-(5-Amino-7-phenethyl-7H-pyrazolo[4,3-e][1,2,4]triazolo[1,5-c]pyrimidin-2-yl)-phenoxy]-acetic acid ethyl ester], the Ki is greater than 1000 nM in assay [1] (Table 2, footnote b: [3H]DPCPX); greater than 1000 nM in assay [2] (setting [5]); greater than 1000 nM in assay [3] (setting [6]); greater than 1000 nM in assay [4] (setting [7]).

`CCNc1c2c(nc(NC(=O)Nc3ccc(OC)cc3)n3nc(-c4ccco4)nc23)nn1C` [Compound 44, 1-(9-Ethylamino-2-furan-2-yl-8-methyl-8H-pyrazolo[4,3-e][1,2,4]triazolo[1,5-c]pyrimidin-5-yl)-3-(4-methoxy-phenyl)-urea]: the inhibition constant (Ki) amounted to 37 nM in assay [1] (setting [8]), 150 nM in assay [2] (setting [9]) and 17 nM in assay [3] (setting [11]). Further, in assay [3], the “affinity for / interaction with A3 adenosine receptor subtype” value (shortened to “affinity for / interaction”) is reported as “good increase in A3 affinity”. The “affinity for A2A adenosine receptor subtype” value in assay [4] is reported as “decrease of A2A affinity”.

Turning to `CCNc1c2c(nc(N)n3nc(-c4ccco4)nc23)nn1C` [Compound 38, N9-Ethyl-2-furan-2-yl-8-methyl-8H-pyrazolo[4,3-e][1,2,4]triazolo[1,5-c]pyrimidiine-5,9-diamine], the Ki in assay [1] (setting [8]) was 81 nM; in assay [2] (setting [9]) it was 50 nM; in assay [3] (setting [11]) it was 225 nM. Further, in assay [4], the “affinity for A2A adenosine receptor subtype” value is reported as “good affinity”.

In assay [2] (setting [9]), `COc1ccc(Nc2c3c(nc(N)n4nc(-c5ccco5)nc34)nn2C)cc1` [Compound 39, 2-Furan-2-yl-N9-(4-methoxy-phenyl)-8-methyl-8H-pyrazolo[4,3-e][1,2,4]triazolo[1,5-c]pyrimidine-5,9-diamine] registered a Ki of 260 nM. For the same compound, the “affinity for A2A adenosine receptor subtype” value in assay [4] was “useless”.

For `CSc1c2c(nc(NC(=O)Cc3ccc(CC(C)C)cc3)n3nc(-c4ccco4)nc23)nn1C` [Compound 48, N-(2-Furan-2-yl-8-methyl-9-methylsulfanyl-8H-pyrazolo[4,3-e][1,2,4]triazolo[1,5-c]pyrimidin-5-yl)-2-(4-isobutyl-phenyl)-acetamide], the Ki came out at 190 nM in assay [1] (setting [8]), 780 nM in assay [2] (setting [9]) and 50 nM in assay [4] (setting [10]). Also, the “affinity for / interaction” value in assay [3] was “decreased”. The “affinity for A2A adenosine receptor subtype” value in assay [4] was “maintains A2A affinity”.

As to `CCCSc1c2c(nc(N)n3nc(-c4ccco4)nc23)nn1C` [Compound 42, 2-Furan-2-yl-8-methyl-9-propylsulfanyl-8H-pyrazolo[4,3-e][1,2,4]triazolo[1,5-c]pyrimidin-5-ylamine], the inhibition constant Ki was 69 nM in assay [1] (setting [8]), 9 nM in assay [2] (setting [9]), 224 nM in assay [3] (setting [11]) and 2.1 nM in assay [4] (setting [10]). The “selectivity for A2A versus the other adenosine receptor subtypes” value in assay [4] is “increases the selectivity”. In assay [4], the “affinity for A2A adenosine receptor subtype” value is “maintains the A2A affinity”.

`Nc1nc2c(cnn2CCc2ccccc2)c2nc(-c3ccc(OCC(=O)Nc4ccc(I)cc4)cc3)nn12` [Compound 8, 2-[4-(5-Amino-7-phenethyl-7H-pyrazolo[4,3-e][1,2,4]triazolo[1,5-c]pyrimidin-2-yl)-phenoxy]-N-(4-iodo-phenyl)-acetamide]: the inhibition constant Ki is greater than 1000 nM in assay [1] (Table 2, footnote b: [3H]DPCPX); greater than 1000 nM in assay [2] (setting [5]); greater than 1000 nM in assay [3] (setting [6]); greater than 1000 nM in assay [4] (setting [7]).

With `CSc1c2c(nc(N)n3nc(-c4ccco4)nc23)nn1C` [Compound 41, 2-Furan-2-yl-8-methyl-9-methylsulfanyl-8H-pyrazolo[4,3-e][1,2,4]triazolo[1,5-c]pyrimidin-5-ylamine], the inhibitory constant (Ki) worked out at 10.3 nM in assay [1] (setting [8]), 8.4 nM in assay [2] (setting [9]), 35 nM in assay [3] (setting [11]) and 1.2 nM in assay [4] (setting [10]). In addition, the “selectivity for A2A versus the other adenosine receptor subtypes” value in assay [4] was “low selectivity”. Moreover, the “affinity for A2A adenosine receptor subtype” value in assay [4] was “good affinity”.

For the compound `CN1CCN(c2c3c(nc(N)n4nc(-c5ccco5)nc34)nn2C)CC1` [Compound 54, 2-Furan-2-yl-8-methyl-9-(4-methyl-piperazin-1-yl)-8H-pyrazolo[4,3-e][1,2,4]triazolo[1,5-c]pyrimidin-5-ylamine dihydrochloride salt], the inhibitory constant (Ki) in assay [1] (Table 3: [3H]DPCPX, HEK-293 cells, dihydrochloride salt) came to 12 nM; in assay [2] (Table 3: [3H]DPCPX, human A1, CHO cells, dihydrochloride salt), 48 nM; in assay [4] (Table 3: [3H]SCH58261, human A2A, dihydrochloride salt) it was 135 nM.

In the case of `COc1ccc(NC(=O)Nc2nc3nn(C)c(SC)c3c3nc(-c4ccco4)nn23)cc1` [Compound 46, 1-(2-Furan-2-yl-8-methyl-9-methylsulfanyl-8H-pyrazolo[4,3-e][1,2,4]triazolo[1,5-c]pyrimidin-5-yl)-3-(4-methoxy-phenyl)-urea], the inhibition constant (Ki) turned out to be 24 nM in assay [1] (setting [8]), 70 nM in assay [2] (setting [9]), 212 nM in assay [3] (setting [11]) and 3.1 nM in assay [4] (setting [10]). The “affinity for / interaction” value in assay [3] is listed as “decreased”.

In the case of `Cn1nc2nc(N)n3nc(-c4ccco4)nc3c2c1Nc1ccc(O)cc1` [Compound 52, 4-(5-Amino-2-furan-2-yl-8-methyl-8H-pyrazolo[4,3-e][1,2,4]triazolo[1,5-c]pyrimidin-9-ylamino)-phenol], the inhibition constant (Ki) in assay [2] (setting [9]) came out at 666 nM; in assay [3] (setting [11]), 308 nM. In addition, the “affinity for A2A adenosine receptor subtype” value in assay [4] is given as “useless”.

For `CN1CCN(c2c3c(nc(N)n4nc(-c5ccco5)nc34)nn2C)CC1` [Compound 40, 2-Furan-2-yl-8-methyl-9-(4-methyl-piperazin-1-yl)-8H-pyrazolo[4,3-e][1,2,4]triazolo[1,5-c]pyrimidin-5-ylamine], the inhibitory constant (Ki) in assay [1] (setting [8]) amounted to 35 nM; in assay [2] (setting [9]), 30 nM; in assay [4] (setting [10]) it was 156 nM. In addition, the “affinity for A2A adenosine receptor subtype” value in assay [4] is recorded as “useless”.

With `COc1ccc(NC(=O)Nc2nc3nn(C)c(N4CCN(C)CC4)c3c3nc(-c4ccco4)nn23)cc1` [Compound 45, 1-[2-Furan-2-yl-8-methyl-9-(4-methyl-piperazin-1-yl)-8H-pyrazolo[4,3-e][1,2,4]triazolo[1,5-c]pyrimidin-5-yl]-3-(4-methoxy-phenyl)-urea], the Ki in assay [1] (setting [8]) is 26 nM; in assay [2] (setting [9]), 316 nM.

Broadly, the Ki is a measure of affinity in units of concentration, obtained from inhibition or displacement.
